This experiment addresses human P2X3 receptor (Homo sapiens (Human), UniProt P56373). Briefly: Evaluation of human P2X3 receptor inhibitory activity (Fluo-3 calcium fluorescence, FDSS 3000, ATP stimulation).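 Further: stimulus was 50 nM ATP with fluorescence followed for 3 min, and the response per well was peak post-ATP fluorescence divided by the reading at measurement start.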 It counts as cell-based. The conditions noted are these: human P2X3 receptor, Test Example 1.

In US9718790B2, “Triazine derivative and pharmaceutical composition having an analgesic activity comprising the same” (SHIONOGI & CO., LTD., priority 2010, dated 2017) one finds IC50 data, which are given here for 61 compounds.

human P2X3 receptor, sequence (P56373 whole entry): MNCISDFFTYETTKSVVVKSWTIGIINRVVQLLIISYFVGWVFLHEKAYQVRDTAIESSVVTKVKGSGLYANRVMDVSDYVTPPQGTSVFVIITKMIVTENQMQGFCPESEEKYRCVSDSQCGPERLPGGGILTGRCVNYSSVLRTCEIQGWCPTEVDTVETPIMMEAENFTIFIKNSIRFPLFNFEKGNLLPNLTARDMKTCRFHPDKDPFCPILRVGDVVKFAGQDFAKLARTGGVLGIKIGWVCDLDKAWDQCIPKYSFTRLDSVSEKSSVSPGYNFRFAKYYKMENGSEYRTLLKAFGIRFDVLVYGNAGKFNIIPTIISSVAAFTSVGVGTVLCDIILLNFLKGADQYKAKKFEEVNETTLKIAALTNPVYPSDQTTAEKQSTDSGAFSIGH

For `C[C@H](CO)n1c(=O)[nH]/c(=N\c2ccc(Oc3ccon3)cc2)n(Cc2ccc(Cl)cc2)c1=O` [Compound I-2488], the IC50 (as a rule, the midpoint of a concentration-inhibition curve) was determined as 37 nM.
As for `C[C@@H](CO)n1c(=O)[nH]/c(=N\c2ccc(Oc3ccon3)cc2)n(Cc2ccc(Cl)cc2)c1=O` [Compound I-2489], the figure is 50 nM.
Turning to `O=c1[nH]/c(=N\c2ccc(Oc3ccon3)cc2)n(Cc2ccc(Cl)cc2)c(=O)n1CCOCCO` [Compound I-2490], the IC50 is 10 nM.
Regarding `CCn1c(=O)[nH]/c(=N\c2ccc(Oc3cc(C(=O)O)n(C)n3)cc2)n(Cc2ccc(Cl)cc2)c1=O` [Compound I-2491], the IC50 came to 74 nM.
Next, `CCn1c(=O)[nH]/c(=N\c2ccc(Oc3cccc(C#N)n3)c(F)c2)n(Cc2ccc(Cl)cc2)c1=O` [Compound I-2492]: 4 nM; `Cn1c(=O)[nH]/c(=N\c2ccc(Oc3cccc(C#N)n3)c(F)c2)n(Cc2ccc(Cl)cc2)c1=O` [Compound I-2493]: 5 nM; `CCn1c(=O)[nH]/c(=N\c2ccc(Oc3cccc(C#N)n3)cc2)n(C[C@H]2CC[C@H](C)CC2)c1=O` [Compound I-2494]: 1 nM.
For the compound `CCn1c(=O)[nH]/c(=N\c2ccc(Oc3cccc(C(N)=O)n3)cc2)n(Cc2ccc(F)cc2)c1=O` [Compound I-2495], the 50% inhibitory concentration (IC50) came out at 21 nM.
With `CCn1c(=O)[nH]/c(=N\c2ccc(Oc3cccc(C(=O)O)n3)cc2)n(Cc2ccc(F)cc2)c1=O` [Compound I-2496], the IC50 came to 30 nM.
Turning to `CCn1c(=O)[nH]/c(=N\c2ccc(Oc3cccc(C(N)=O)n3)cc2)n(C[C@H]2CC[C@H](C)CC2)c1=O` [Compound I-2497], the half-inhibitory concentration (IC50) was determined as 1 nM.
With `CCn1c(=O)[nH]/c(=N\c2ccc(Oc3cccc(C(=O)O)n3)c(F)c2)n(Cc2ccc(Cl)cc2)c1=O` [Compound I-2498], the IC50 stood at 3 nM.
As for `CCn1c(=O)[nH]/c(=N\c2ccc(Oc3cccc(C(=O)O)n3)cc2)n(C[C@H]2CC[C@H](C)CC2)c1=O` [Compound I-2499], the figure is 5 nM; as for `C[C@H](C(N)=O)n1c(=O)[nH]/c(=N\c2ccc(Oc3ccon3)cc2)n(Cc2ccc(Cl)cc2)c1=O` [Compound I-2500], 67 nM.
As for `C[C@@H](C(N)=O)n1c(=O)[nH]/c(=N\c2ccc(Oc3ccon3)cc2)n(Cc2ccc(Cl)cc2)c1=O` [Compound I-2501], the figure is 57 nM; as for `Cn1c(=O)[nH]/c(=N\c2ccc(Oc3cccc(C(=O)O)n3)c(F)c2)n(Cc2ccc(Cl)cc2)c1=O` [Compound I-2502], 7 nM.
Next, `O=c1[nH]c(=O)n(Cc2ccc(Cl)cc2)/c(=N/c2ccc(Oc3cccc(F)n3)cc2)[nH]1` [Compound I-2503]: 39 nM; `O=C(O)Cn1c(=O)[nH]/c(=N\c2ccc(Oc3ccon3)cc2)n(Cc2ccc(Cl)cc2)c1=O` [Compound I-2504]: 370 nM.
Regarding `O=c1[nH]/c(=N\c2ccc(Oc3nccs3)cc2)n(Cc2ccc(Cl)cc2)c(=O)n1CCO` [Compound I-2505], the IC50 was 17 nM.
Next, `O=c1[nH]/c(=N\c2ccc(Oc3nccs3)cc2)n(Cc2ccc(Cl)cc2)c(=O)n1C[C@@H](O)CO` [Compound I-2506]: 14 nM; `O=c1[nH]/c(=N\c2ccc(Oc3nccs3)cc2)n(Cc2ccc(F)cc2)c(=O)n1CCCO` [Compound I-2507]: 35 nM.
For the compound `CC(CO)(CO)Cn1c(=O)[nH]/c(=N\c2ccc(Oc3nccs3)cc2)n(Cc2ccc(F)cc2)c1=O` [Compound I-2508], the 50% inhibitory concentration (IC50) was 13 nM.
With `Cc1ccc(Cn2c(=O)n(C[C@H](O)CO)c(=O)[nH]/c2=N\c2ccc(Oc3ccon3)cc2)cc1` [Compound I-2510], the IC50 stood at 10 nM.
Next, `Cc1nnc(Oc2ccc(/N=c3\[nH]c(=O)n(C[C@H](O)CO)c(=O)n3Cc3ccc(Cl)cc3)cc2)s1` [Compound I-2511]: 235 nM; `NC(=O)Cn1c(=O)[nH]/c(=N\c2ccc(Oc3ccon3)cc2)n(Cc2ccc(Cl)cc2)c1=O` [Compound I-2512]: 11 nM.
Next, `Cc1cnc(Oc2ccc(/N=c3\[nH]c(=O)n(C[C@H](O)CO)c(=O)n3Cc3ccc(Cl)cc3)cc2)s1` [Compound I-2513]: 6 nM.
Next, `O=c1[nH]/c(=N\c2ccc(Oc3ccsn3)cc2)n(Cc2ccc(Cl)cc2)c(=O)n1CC(O)CO` (stereo not shown) [Compound I-2514]: 11 nM; `CCn1c(=O)[nH]/c(=N\c2ccc(Oc3nnn[nH]3)cc2)n(Cc2ccc(Cl)cc2)c1=O` [Compound I-2515]: 346 nM.
Take `O=c1[nH]/c(=N\c2ccc(Oc3cccc(F)n3)cc2)n(Cc2ccc(Cl)cc2)c(=O)n1CCO` [Compound I-2516]: the IC50 worked out at 9 nM.
As for `Cc1nnc(Oc2ccc(/N=c3\[nH]c(=O)n(CC(CO)CO)c(=O)n3Cc3ccc(Cl)cc3)cc2)s1` [Compound I-2517], the figure is 167 nM; as for `Cc1nsc(Oc2ccc(/N=c3\[nH]c(=O)n(C[C@H](O)CO)c(=O)n3Cc3ccc(Cl)cc3)cc2)n1` [Compound I-2518], 4 nM.
As for `O=c1[nH]/c(=N\c2ccc(Oc3ncns3)cc2)n(Cc2ccc(Cl)cc2)c(=O)n1C[C@H](O)CO` [Compound I-2519], the half-maximal inhibitory concentration (IC50) worked out at 4 nM.
Next, `Cc1nsc(Oc2ccc(/N=c3\[nH]c(=O)n(CC(CO)CO)c(=O)n3Cc3ccc(Cl)cc3)cc2)n1` [Compound I-2520]: 2 nM; `O=c1[nH]/c(=N\c2ccc(Oc3ncns3)cc2)n(Cc2ccc(Cl)cc2)c(=O)n1CC(CO)CO` [Compound I-2521]: 5 nM; `CC(C)(C)OC(=O)NCCn1c(=O)[nH]/c(=N\c2ccc(Oc3ccon3)cc2)n(Cc2ccc(Cl)cc2)c1=O` [Compound I-2522]: 11 nM.
Next, `NCCn1c(=O)[nH]/c(=N\c2ccc(Oc3ccon3)cc2)n(Cc2ccc(Cl)cc2)c1=O` [Compound I-2523]: 169 nM; `CC(=O)NCCn1c(=O)[nH]/c(=N\c2ccc(Oc3ccon3)cc2)n(Cc2ccc(Cl)cc2)c1=O` [Compound I-2524]: 34 nM.
Next, `O=c1[nH]/c(=N\c2ccc(Oc3cccc(F)n3)cc2)n(Cc2ccc(Cl)cc2)c(=O)n1C[C@@H](O)CO` [Compound I-2525]: 10 nM; `CC(CO)(CO)Cn1c(=O)[nH]/c(=N\c2ccc(Oc3cccc(F)n3)cc2)n(Cc2ccc(F)cc2)c1=O` [Compound I-2526]: 8 nM.
Turning to `CNC(=O)CCn1c(=O)[nH]/c(=N\c2ccc(Oc3ccon3)cc2)n(Cc2ccc(Cl)cc2)c1=O` [Compound I-2527], the IC50 was 26 nM.
For the compound `O=c1[nH]/c(=N\c2ccc(Oc3ccon3)c(F)c2)n(Cc2ccc(Cl)cc2)c(=O)n1C(CO)CO` [Compound I-2529], the half-inhibitory concentration (IC50) turned out to be 73 nM.
Next, `O=c1[nH]/c(=N\c2ccc(Oc3ccsn3)cc2)n(Cc2ccc(Cl)cc2)c(=O)n1C[C@H](O)CO` [Compound I-2530]: 16 nM.
As for `CC(CO)(CO)Cn1c(=O)[nH]/c(=N\c2ccc(Oc3ccsn3)cc2)n(Cc2ccc(Cl)cc2)c1=O` [Compound I-2531], the IC50 amounted to 4 nM.
As to `CCn1c(=O)[nH]/c(=N\c2ccc(Oc3ccnc(C(N)=O)n3)cc2)n(Cc2ccc(Cl)cc2)c1=O` [Compound I-2532], the IC50 was 5 nM.
With `CCn1c(=O)[nH]/c(=N\c2ccc(Oc3ccc(C(=O)NC)nn3)cc2)n(Cc2ccc(Cl)cc2)c1=O` [Compound I-2533], the IC50 came out at 4 nM.
For the compound `CNC(=O)[C@@H](C)n1c(=O)[nH]/c(=N\c2ccc(Oc3ccon3)cc2)n(Cc2ccc(Cl)cc2)c1=O` [Compound I-2534], the concentration for half-maximal inhibition (IC50) was found to be 105 nM.
For `CNC(=O)[C@H](C)n1c(=O)[nH]/c(=N\c2ccc(Oc3ccon3)cc2)n(Cc2ccc(Cl)cc2)c1=O` [Compound I-2535], the IC50 amounted to 44 nM.
As for `COCCn1c(=O)[nH]/c(=N\c2ccc(Oc3ccnc(C(=O)OC)c3)cc2)n(Cc2ccc(Cl)cc2)c1=O` [Compound I-2536], the figure is 5 nM; as for `COCCn1c(=O)[nH]/c(=N\c2ccc(Oc3cncc(C(=O)OC)c3)cc2)n(Cc2ccc(Cl)cc2)c1=O` [Compound I-2537], 5 nM.
On to `COCCn1c(=O)[nH]/c(=N\c2ccc(Oc3cccc(C#N)n3)cc2)n(Cc2ccc(Cl)cc2)c1=O` [Compound I-2538], for which the half-inhibitory concentration (IC50) turned out to be 3 nM.
Next, `CCOC(=O)CN(C(=O)OC(C)(C)C)c1cc(Oc2ccc(/N=c3\[nH]c(=O)n(CC)c(=O)n3Cc3ccc(Cl)cc3)cc2)ccn1` [Compound I-2540]: 104 nM.
Next, `O=c1[nH]/c(=N\c2ccc(Oc3nccs3)cc2)n(Cc2ccc(Cl)cc2)c(=O)n1C(CO)CO` [Compound I-2541]: 118 nM; `O=c1[nH]/c(=N\c2ccc(Oc3ccon3)cc2)n(Cc2ccc(Cl)cc2)c(=O)n1C(CO)CO` [Compound I-2542]: 186 nM.
As for `O=c1[nH]/c(=N\c2ccc(Oc3ncccn3)cc2)n(Cc2ccc(Cl)cc2)c(=O)n1CCCO` [Compound I-2543], the figure is 10 nM; as for `O=c1[nH]/c(=N\c2ccc(Oc3ncccn3)cc2)n(Cc2ccc(Cl)cc2)c(=O)n1CC(CO)CO` [Compound I-2544], 11 nM.
Consider `N#Cc1ccc(Oc2ccc(/N=c3\[nH]c(=O)n(CCO)c(=O)n3Cc3ccc(Cl)cc3)cc2)cc1` [Compound I-2545], for which the concentration for half-maximal inhibition (IC50) was 7 nM.
`NC(=O)c1ccc(Oc2ccc(/N=c3\[nH]c(=O)n(C[C@H](O)CO)c(=O)n3Cc3ccc(Cl)cc3)cc2)cc1` [Compound I-2546]: the IC50 came out at 6 nM.
As for `COCCn1c(=O)[nH]/c(=N\c2ccc(Oc3cncc(C(=O)O)c3)cc2)n(Cc2ccc(Cl)cc2)c1=O` [Compound I-2547], the figure is 8 nM; as for `COCCn1c(=O)[nH]/c(=N\c2ccc(Oc3cccc(C(=O)O)n3)cc2)n(Cc2ccc(Cl)cc2)c1=O` [Compound I-2548], 6 nM; as for `CCOC(=O)CNc1cc(Oc2ccc(/N=c3\[nH]c(=O)n(CC)c(=O)n3Cc3ccc(Cl)cc3)cc2)ccn1` [Compound I-2549], 12 nM.
As for `CCOC(=O)CCn1c(=O)[nH]/c(=N\c2ccc(Oc3ncccn3)cc2)n(Cc2ccc(Cl)cc2)c1=O` [Compound I-2550], the figure is 4 nM; as for `COC(=O)CCn1c(=O)[nH]/c(=N\c2ccc(Oc3ncccn3)cc2)n(Cc2ccc(C)cc2)c1=O` [Compound I-2551], 4 nM.
